Each compound was assayed against T1, human androgen receptor (hAR) (Homo sapiens, UniProt P10275) (assay: Competitive binding analysis on baculovirus/Sf9 generated hAR extracts with 3H-DHT tracer). Details: hAR extract, 1 nM 3H-DHT, one hour at 4° C; mean of multiple tests; read-out: AR Binding IC50.
T1 construct: made in house; host or cells: baculovirus/Sf9 insect cells (crude extract)
T1 sequence (P10275 1-920): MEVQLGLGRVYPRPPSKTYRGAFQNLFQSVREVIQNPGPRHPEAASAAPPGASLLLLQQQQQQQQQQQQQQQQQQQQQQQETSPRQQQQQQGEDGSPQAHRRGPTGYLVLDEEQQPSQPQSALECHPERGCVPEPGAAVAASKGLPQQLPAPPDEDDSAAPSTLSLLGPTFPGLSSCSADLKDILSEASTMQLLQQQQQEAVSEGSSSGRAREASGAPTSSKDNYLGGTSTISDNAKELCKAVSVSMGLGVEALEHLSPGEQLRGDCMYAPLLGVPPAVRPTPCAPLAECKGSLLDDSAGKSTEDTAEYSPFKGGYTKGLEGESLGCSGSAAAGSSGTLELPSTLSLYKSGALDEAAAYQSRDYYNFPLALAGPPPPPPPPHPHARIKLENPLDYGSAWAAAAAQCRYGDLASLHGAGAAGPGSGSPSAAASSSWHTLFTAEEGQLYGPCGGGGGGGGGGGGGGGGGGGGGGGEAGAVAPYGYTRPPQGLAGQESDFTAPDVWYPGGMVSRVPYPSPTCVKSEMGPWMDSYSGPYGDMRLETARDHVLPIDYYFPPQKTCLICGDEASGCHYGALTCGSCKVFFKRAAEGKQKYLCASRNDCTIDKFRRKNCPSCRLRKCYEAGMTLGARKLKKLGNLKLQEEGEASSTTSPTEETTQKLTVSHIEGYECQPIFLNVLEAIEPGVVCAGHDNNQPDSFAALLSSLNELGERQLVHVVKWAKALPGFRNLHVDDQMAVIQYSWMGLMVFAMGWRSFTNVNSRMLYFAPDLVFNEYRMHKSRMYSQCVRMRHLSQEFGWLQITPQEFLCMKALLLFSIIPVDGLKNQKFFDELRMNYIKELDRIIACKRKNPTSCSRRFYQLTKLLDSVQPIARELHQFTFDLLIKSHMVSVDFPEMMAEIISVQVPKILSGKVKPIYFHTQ
Experimental: The compounds of Formula I have affinity for the androgen receptor. […] The description below describes how the assay was carried out.
Competitive binding analysis was performed on baculovirus/Sf9 generated hAR extracts in the presence or absence of different concentrations of test agent and a fixed concentration of ^3H-dihydrotestosterone (^3H-DHT) as tracer. This binding assay method is a modification of a protocol previously described (Liao S., et. al. J. Steroid Biochem. 20:11-17 1984). Briefly, progressively decreasing concentrations of compounds are incubated in the presence of hAR extract (Chang et al. P.N.A.S. Vol. 89, pp. […], 1992), hydroxylapatite, and 1 nM^3H-DHT for one hour at 4° C. Subsequently, the binding reactions are washed three times to completely remove excess unbound ^3H-DHT. hAR bound ^3H-DHT levels are determined in the presence of compounds (=i.e competitive binding) and compared to levels bound when no competitor is present (=i.e. maximum binding). Compound binding affinity to the hAR is expressed as the concentration of compound at which one half of the maximum binding is inhibited. Table II below provides the results that were obtained for selected compounds (reported data is the mean of multiple tests as shown below)
In the case of “2-(4-Cyano-3-trifluoromethyl-phenoxy)-4-methyl-pentanoic acid (2H-imidazo[1,2-a]pyridin-3-yl)-methyl)amide [Example 60]”, the IC50 is reported as 318 nM.
In the case of `COc1ccc([C@@H](C)NC(=O)C(CC(C)C)Oc2ccc(C#N)c(C(F)(F)F)c2)cc1` (stereo in doubt) [Example 110, 2-(4-Cyano-3-trifluoromethyl-phenoxy)-4-methyl-pentanoic acid [1-(4-methoxy-phenyl)-ethyl]-amide], the IC50 is reported as 340 nM.
Compound `CC(C)CC(Oc1ccc(C#N)c(C(F)(F)F)c1)C(=O)N[C@@H](C)c1ccccc1` (stereo in doubt) [Example 112, 2-(4-Cyano-3-trifluoromethyl-phenoxy)-4-methyl-pentanoic acid (1-phenyl-ethyl)-amide] has an IC50 of 329 nM.
`CC(C)CC(Oc1ccc(C#N)c(C(F)(F)F)c1)C(=O)N[C@H](C)c1ccccc1` (stereo in doubt) [Example 122, 2-(4-Cyano-3-trifluoromethyl-phenoxy)-4-methyl-pentanoic acid (1-phenyl-ethyl)-amide] was tested, and the IC50 was 329 nM.
Compound `CCNC(=O)C(CC(C)C)Oc1ccc(C#N)c(C(F)(F)F)c1` (stereo not drawn) [Example 3, 2-(4-Cyano-3-trifluoromethyl-phenoxy)-4-methyl-pentanoic acid ethylamide] has an IC50 of 247 nM.
`CCCC(Oc1ccc(C#N)c(C(F)(F)F)c1)C(=O)NC(C)c1ccc(O)cc1` (stereo not drawn) [Example 6, 2-(4-Cyano-3-trifluoromethyl-phenoxy)-pentanoic acid [1-(4-hydroxy-phenyl)ethyl]-amide] showed an IC50 of 455 nM.
Work on `CC(C)CC(Oc1ccc(C#N)c(C(F)(F)F)c1)C(=O)NCc1ccncc1` (stereo not drawn) [Example 16, 2-(4-Cyano-3-trifluoromethyl-phenoxy)-4-methyl-pentanoic acid (pyridin-4-yl-methyl)-amide] yielded an IC50 of 368 nM.
`CCCC(Oc1ccc(C#N)c(C(F)(F)F)c1)C(=O)NC(C)c1cccs1` (stereo not drawn) [Example 17, 2-(4-Cyano-3-trifluoromethyl-phenoxy)-pentanoic acid (1-thiophen-2-yl-ethyl)amide] showed an IC50 of 1000 nM.
`Cc1cccnc1CNC(=O)C(CC(C)C)Oc1ccc(C#N)c(C(F)(F)F)c1` (stereo not drawn) [Example 20, 2-(4-Cyano-3-trifluoromethyl-phenoxy)-4-methyl-pentanoic acid (3-methyl-pyridin-2-yl-methyl)-amide] gave an IC50 of 410 nM.
In the case of `CSCCCNC(=O)C(CC(C)C)Oc1ccc(C#N)c(C(F)(F)F)c1` (stereo not drawn) [Example 21, 2-(4-Cyano-3-trifluoromethyl-phenoxy)-4-methyl-pentanoic acid (3-methylsulfanyl-propyl)-amide], the IC50 is reported as 362 nM.
`CC(C)CC(Oc1ccc(C#N)c(C(F)(F)F)c1)C(=O)NCC1Cc2ccccc2CO1` (stereo not drawn) [Example 27, 2-(4-Cyano-3-trifluoromethyl-phenoxy)-4-methyl-pentanoic acid (isochroman-3-yl-methyl)-amide] showed an IC50 of 214 nM.
`CCCC(Oc1ccc(C#N)c(C(F)(F)F)c1)C(=O)NCC1Cc2ccccc2CO1` (stereo not drawn) [Example 32, 2-(4-Cyano-3-trifluoromethyl-phenoxy)-pentanoic acid (isochroman-3-yl-methyl)amide] gave an IC50 of 407 nM.
In the case of `CCCC(Oc1ccc(C#N)c(C(F)(F)F)c1)C(=O)NCc1cccc(OC)c1` (stereo not drawn) [Example 40, 2-(4-Cyano-3-trifluoromethyl-phenoxy)-pentanoic acid-3-methoxy-benzylamide], the IC50 is reported as 241 nM.
Work on `CCCC(Oc1ccc(C#N)c(C(F)(F)F)c1)C(=O)NCCc1ccc(C)cc1` (stereo not drawn) [Example 50, 2-(4-Cyano-3-trifluoromethyl-phenoxy)-pentanoic acid-(2-p-tolyl-ethyl)-amide] yielded an IC50 of 399 nM.
Work on `CCCC(Oc1ccc(C#N)c(C(F)(F)F)c1)C(=O)NCCc1ccccc1OC` (stereo not drawn) [Example 51, 2-(4-Cyano-3-trifluoromethyl-phenoxy)-pentanoic acid-[2-(2-methoxy-phenyl)ethyl]-amide] yielded an IC50 of 381 nM.
Work on `CC(C)CC(Oc1ccc(C#N)c(C(F)(F)F)c1)C(=O)N(Cc1ccccc1)C(C)C` (stereo not drawn) [Example 63, 2-(4-Cyano-3-trifluoromethyl-phenoxy)-4-methyl-pentanoic acid benzyl-isopropyl-amide] yielded an IC50 of 482 nM.
With `CCCC(Oc1ccc(C#N)c(C(F)(F)F)c1)C(=O)N(Cc1ccccc1)C(C)C` (stereo not drawn) [Example 67, 2-(4-Cyano-3-trifluoromethyl-phenoxy)-pentanoic acid benzyl-isopropyl-amide] the IC50 was 440 nM.
`CC(C)CC(Oc1ccc(C#N)c(C(F)(F)F)c1)C(=O)NC(C)c1ccc(O)cc1` (stereo not drawn) [Example 69, 2-(4-Cyano-3-trifluoromethyl-phenoxy)-4-methyl-pentanoic acid [1-(4-hydroxyphenyl)-ethyl]-amide] gave an IC50 of 341 nM.
In the case of `CC(C)CC(Oc1ccc(C#N)c(C(F)(F)F)c1)C(=O)NCc1ccc(C(C)C)cc1` (stereo not drawn) [Example 70, 2-(4-Cyano-3-trifluoromethyl-phenoxy)-4-methyl-pentanoic acid 4-isopropyl-benzylamide], the IC50 is reported as 253 nM.
For `COc1cccc(CNC(=O)C(CC(C)C)Oc2ccc(C#N)c(C(F)(F)F)c2)c1` (stereo not drawn) [Example 71, 2-(4-Cyano-3-trifluoromethyl-phenoxy)-4-methyl-pentanoic acid-3-methoxy-benzylamide], the IC50 was 288 nM.
`CCC(C)CNC(=O)C(CC(C)C)Oc1ccc(C#N)c(C(F)(F)F)c1` (stereo not drawn) [Example 75, 2-(4-Cyano-3-trifluoromethyl-phenoxy)-4-methyl-pentanoic acid-(2-methyl-butyl)amide] was tested, and the IC50 was 417 nM.
For `Cc1ncccc1CNC(=O)C(CC(C)C)Oc1ccc(C#N)c(C(F)(F)F)c1` (stereo not drawn) [Example 76, 2-(4-Cyano-3-trifluoromethyl-phenoxy)-4-methyl-pentanoic acid (2-methyl-pyridin-3-yl-methyl)-amide], the IC50 was 479 nM.
`CCCC(Oc1ccc(C#N)c(C(F)(F)F)c1)C(=O)NCc1cccc2ccccc12` (stereo not drawn) [Example 77, 2-(4-Cyano-3-trifluoromethyl-phenoxy)-pentanoic acid (naphthalene-1-yl-methyl)amide] showed an IC50 of 292 nM.
With `Cc1ccc(NC(=O)C(CC(C)C)Oc2ccc(C#N)c(C(F)(F)F)c2)cc1O` (stereo not drawn) [Example 88, 2-(4-Cyano-3-trifluoromethyl-phenoxy)-4-methyl-pentanoic acid (3-hydroxy-4-methyl-phenyl)-amide] the IC50 was 296 nM.
With `CCCC(Oc1ccc(C#N)c(C(F)(F)F)c1)C(=O)NCCCSC` (stereo not drawn) [Example 89, 2-(4-Cyano-3-trifluoromethyl-phenoxy)-pentanoic acid (3-methylsulfanyl-propyl)amide] the IC50 was 486 nM.
In the case of `CCCC(Oc1ccc(C#N)c(C(F)(F)F)c1)C(=O)NCCSC` (stereo not drawn) [Example 90, 2-(4-Cyano-3-trifluoromethyl-phenoxy)-pentanoic acid (2-methylsulfanyl-ethyl)amide], the IC50 is reported as 736 nM.
`COc1ccc2[nH]cc(CCNC(=O)C(CC(C)C)Oc3ccc(C#N)c(C(F)(F)F)c3)c2c1` (stereo not drawn) [Example 98, 2-(4-Cyano-3-trifluoromethyl-phenoxy)-4-methyl-pentanoic acid [2-(5-methoxy-1H-indol-3-yl)-ethyl]-amide] gave an IC50 of 279 nM.
Compound `CCCC(Oc1ccc(C#N)cc1Cl)C(=O)OCC` (stereo not drawn) [Example 100, 2-(2-Chloro-4-cyano-phenoxy)-pentanoic acid ethyl ester] has an IC50 of 347 nM.
Work on `CCCOCCCNC(=O)C(CCC)Oc1ccc(C#N)c(C(F)(F)F)c1` (stereo not drawn) [Example 115, 2-(4-Cyano-3-trifluoromethyl-phenoxy)-pentanoic acid (3-propoxy-propyl)-amide] yielded an IC50 of 428 nM.
Compound `CCCC(Oc1ccc(C#N)c(C(F)(F)F)c1)C(=O)Nc1ccc(C)c(O)c1` (stereo not drawn) [Example 116, 2-(4-Cyano-3-trifluoromethyl-phenoxy)-pentanoic acid (3-hydroxy-4-methyl-phenyl)-amide] has an IC50 of 296 nM.

— patent publication US7507860B2 (Pfizer Inc., priority 2004, dated 2009)
